Source: patent US11963961B2, “Combination therapy comprising an ACC inhibitor” (Gilead Sciences, Inc., priority 2017, dated 2024)

Experiments:
[1] = system: fast food diet (FFD) male C57B1/6 mouse; test: 14-day pharmacology study of Compound 2 and fenofibrate in chow, fast food diet model of fatty liver; format: in vivo; details: Compound 2 10 mg/kg QD PO, two weeks of dosing
Protocol: Once Daily Compound 2 and Fenofibrate Administered in Chow: 14-Day Pharmacology Study Using the Fast Food Diet Model of Fatty Liver in the Male C57B1/6 Mouse
Purpose: The purpose of this study was to assess the effect of Compound 2 on plasma and liver TG and molecular biology of liver after 10 to 14 days of Compound 2 administered orally (10 mg/kg QD), or fenofibrate (0.1% administration in chow), or the combination in a mice fed a diet high in fat, cholesterol, and fructose (the fast-food diet, FFD). Mice enrolled in this study were fed a fast food diet for approximately 9 months prior to study start. Primary endpoints were plasma triglycerides, liver triglycerides, liver cholesterol, and hepatic gene expression of liver X receptorα (LXRα), and sterol response element binding protein-1c (SREBP1c) target genes by qPCR.

[2] = system: fast food diet (FFD) male C57BL/6 mouse; test: 15-day once daily oral Compound 2 and fenofibrate, fast food diet model of fatty liver; format: in vivo; details: 15 days
Protocol: Once Daily Oral Administration of Compound 2 and Fenofibrate: 15-Day Pharmacology Study Using the Fast Food Diet Model of Fatty Liver in the Male C57BL/6 Mouse
(§1) Purpose: The purpose of this study was to assess the effect of Compound 2 on plasma and liver triglycerides (TG) and molecular biology of liver after 15 days of oral administration (“PO”) of Compound 2 (5 mg/kg QD), fenofibrate (25 mg/kg and 50 mg/kg QD), or the combination (Compound 2 (5 mg/kg, QD)+fenofibrate (50 mg/kg, QD)) in mice fed a diet high in fat, cholesterol, and fructose (the fast-food diet, FFD (Research Diet D12079B)). Mice enrolled in this study were fed a FFD for approximately 9 months prior to study start. Primary endpoints were plasma TG, liver TG, liver ketone bodies, plasma liver enzymes, hepatic oxidative stress and hepatic gene expression of liver X receptorα (LXRα) and PPARα targets, and profibrotic markers by qPCR.

[3] = system: pro-fibrotic genes colla1 and timp1; test: Hepatic mRNA expression by qPCR, 15-day FFD mouse study; format: in vivo; details: Compound 2 5 mg/kg; fenofibrate 50 mg/kg; QD PO, 15 days
Protocol: as §1

[4] = system: subjects with steatosis and F1-F3 fibrosis / NASH; details: one subject on Compound 1 20 mg given 145 mg fenofibrate after grade 3 hypertriglyceridemia at week 1
Protocol: Ten subjects with steatosis (MRI-PDFF≥10%) and F1-F3 fibrosis (MRE≥2.88 kPa but non-cirrhotic based on FibroText <0.75, historical imaging and liver biopsy) were treated 20 mg Compound 1 for 12 weeks.
Four of the ten subjects were on fish oil or fenofibrate at baseline and continued the concomitant medication for the duration of the study. Throughout the study subjects were monitored for safety (adverse events, laboratory abnormalities), liver biochemistry, serum markers of fibrosis (ELF and its components TIMP-1, hyaluronic acid, PIII-NP) and cell death (CK18 M30 and M65), liver stiffness (MRE) and fat (MRI-PDFF) and the effect on de novo lipogensis was assessed using heavy water labeling.
The four subjects were analyzed in conjunction with eight subjects from the study described in Example 1. These twelve subjects were on fish oil or fibrates for at least six weeks of the study and included those who were on fish oil or fibrates at baseline or who had graded hypertriglyceridemia and were given fish oil or fibrates during the study.

| Plasma triglycerides, increase relative to vehicle-treated animals [1] [%] | Plasma TG, increase relative to vehicle-treated animals ([2]; Compound 2 5 mg/kg QD PO, 2 h post dose, ad lib fed) [%] | SMILES | Hepatic expression of pro-fibrotic genes [3] | All monitored TG related measurements (total TG, APOB48, VLDL-P, APOC3) [4] | Effect on the above-mentioned parameters (plasma TG, PPARα and LXRα target genes, ALT/AST, liver TG, βOHB, malondialdehyde) ([2]; fenofibrate alone, both 25 and 50 mg/kg QD PO) |
| --- | --- | --- | --- | --- | --- |
| 15 | 29 | COc1ccccc1[C@H](Cn1c(=O)n(C(C)(C)C(=O)O)c(=O)c2c(C)c(-c3ncco3)sc21)O[C@H]1CC[C@@H](O)CC1 [Compound 2, 2-[1-[(2R)-2-[(4-hydroxycyclohexyl)oxy]-2-(2-methoxyphenyl)ethyl]-5-methyl-6-(1,3-oxazol-2-yl)-2,4-dioxo-1H,2H,3H,4H-thieno[2,3-d]pyrimidin-3-yl]-2-methylpropanoic acid] |  |  |  |
|  |  | CC(C)OC(=O)C(C)(C)Oc1ccc(C(=O)c2ccc(Cl)cc2)cc1 [fenofibrate, Fenofibrate, reference compound] | reduced | improved to less than baseline | modest-to-no effect |
